Experiments:
[1] = system: perfused human ocular anterior segment; test: human ocular perfusion organ culture model, aqueous outflow rate; details: for Flow Rate (% of Time 0) (Mean ± SEM, n = 6): t-BHQ 10 μM
Procedure: The study was performed as follows: Human donor eyes less than 24 hours post mortem were used. The globe was sectioned equatorially followed by the removal of vitreous, lens, zonules, iris, and most of the ciliary body. The anterior segment was then mounted on a perfusion dish, perfused with cell culture medium at a constant hydrostatic pressure of 10 mm Hg (Johnson et al., Human trabecular meshwork organ culture: A new method, Invest Ophthalmol Vis Sci., volume 28, pages 945-953 (1987); Erickson-Lamy et al., Outflow facility studies in the perfused human ocular anterior segment, Exp. Eye Res., volume 52, pages 723-731 (1991); and Clark et al., Dexamethasone-induced ocular hypertension in perfusion cultured human eyes, Invest. Ophthalmol. Vis. Sci., volume 36, pages 478-489 (1995)). The flow rate of the perfusate was measured by weighing the reservoir at predetermined periods. After 2 to 4 days of equilibrium period, one eye of each of the donor pair was perfused with the test compound, t-BHQ (10 μM), while the other was perfused with vehicle (control).

AP-1 = details: nuclear extracts, 32P-labelled AP-1 oligonucleotide probe; cited from earlier work

What does the source list for `CC(C)(C)c1cc(O)ccc1O` [t-BHQ, tert-butylhydroquinone]?
basal flow rate at time 0 ([1]; drug-treated eyes, time 0 (basal)): (1) The basal flow rate at time 0 for vehicle-treated eyes was 3.55 ± 1.00 μL/min, and that for drug-treated eyes was 4.09 ± 0.63 μL/min.; Flow Rate (% of Time 0) (Mean ± SEM, n = 6) ([1]; 0 hours (baseline)): 100.0 % of Time 0; Flow Rate (% of Time 0) (Mean ± SEM, n = 6) ([1]; 4 hours after treatment): 105.8 ± 5.4 % of Time 0; Flow Rate (% of Time 0) (Mean ± SEM, n = 6) ([1]; 24 hours after treatment): 102.9 ± 3.9 % of Time 0; Flow Rate (% of Time 0) (Mean ± SEM, n = 6) ([1]; 48 hours after treatment): 105.2 ± 10.1 % of Time 0; Flow Rate (% of Time 0) (Mean ± SEM, n = 6) ([1]; 72 hours after treatment): 111.8 ± 11.8 % of Time 0; Flow Rate (% of Time 0) (Mean ± SEM, n = 6) ([1]; 96 hours after treatment): 120.9 ± 16.4 % of Time 0; Flow Rate (% of Time 0) (Mean ± SEM, n = 6) ([1]; −4 hours (before treatment)): 97.0 ± 4.0 % of Time 0; AP-1 DNA binding activity (AP-1 Activator) (AP-1): demonstrated to be AP-1 Activators

Source: US20060142379A1, “Use of AP-1 activators to treat glaucoma and ocular hypertension” (priority 1999, published 2006)
